This is an account of results in US9464092B2, “Transient protection of normal cells during chemotherapy” (G1 Therapeutics, Inc., priority 2013, dated 2016).

Holding throughout (assay type): biochemical
For one test, the target named is CDK4/CyclinD1 (Homo sapiens (Human), UniProt P11802). The experiment in a line: CDK4/CyclinD1 kinase assay (Nanosyn, Caliper microfluidic). The conditions noted are these: Table 2; read-out: CDK4/CycD1 IC50. The method, then:
(§1) Selected compounds disclosed herein were tested in CDK4/cyclinD1, CDK6/CycD3 CDK2/CycA and CDK2/cyclinE kinase assays by Nanosyn (Santa Clara, Calif.) to determine their inhibitory effect on these CDKs. The assays were performed using microfluidic kinase detection technology (Caliper Assay Platform). The compounds were tested in 12-point dose-response format in singlicate at Km for ATP. Phosphoacceptor substrate peptide concentration used was 1 μM for all assays and Staurosporine was used as the reference compound for all assays. Specifics of each assay are as described below:
CDK4/CyclinD1: Enzyme concentration: 1 nM; ATP concentration: 200 μM; Incubation time: 10 hr.

A further test has as its target CDK2/CyclinE (Homo sapiens (Human), UniProt P24941). The experiment in a line: CDK2/CyclinE kinase assay (Nanosyn, Caliper microfluidic). To be noted: Table 2; for IC50: read-out: CDK2/CycE IC50. As to the method:
Selected compounds disclosed herein were tested in CDK4/cyclinD1, CDK6/CycD3 CDK2/CycA and CDK2/cyclinE kinase assays by Nanosyn (Santa Clara, Calif.) to determine their inhibitory effect on these CDKs. The assays were performed using microfluidic kinase detection technology (Caliper Assay Platform). The compounds were tested in 12-point dose-response format in singlicate at Km for ATP. Phosphoacceptor substrate peptide concentration used was 1 μM for all assays and Staurosporine was used as the reference compound for all assays.

The next test concerns the target CDK2/CyclinA (Homo sapiens (Human), UniProt P24941). The experiment in a line: CDK2/CyclinA kinase assay (Nanosyn, Caliper microfluidic). The conditions noted are these: Table 2; for IC50: read-out: CDK2/CycA IC50. As to the method: as §1
CDK2/CyclinA: Enzyme concentration: 0.2 nM; ATP concentration: 50 μM; Incubation time: 3 hr.

Sequence of CDK4/CyclinD1 (P11802 whole entry, species assumed): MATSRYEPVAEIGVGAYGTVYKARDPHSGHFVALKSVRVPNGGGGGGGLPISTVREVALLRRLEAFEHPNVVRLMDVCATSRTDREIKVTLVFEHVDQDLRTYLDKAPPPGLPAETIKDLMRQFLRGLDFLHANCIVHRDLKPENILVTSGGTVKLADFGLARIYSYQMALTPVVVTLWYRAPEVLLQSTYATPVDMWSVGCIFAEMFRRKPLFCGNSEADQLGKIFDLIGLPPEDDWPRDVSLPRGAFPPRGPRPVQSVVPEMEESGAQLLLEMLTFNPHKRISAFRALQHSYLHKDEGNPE
Sequence of CDK4/CyclinD1 (P24385 whole entry partner, species assumed): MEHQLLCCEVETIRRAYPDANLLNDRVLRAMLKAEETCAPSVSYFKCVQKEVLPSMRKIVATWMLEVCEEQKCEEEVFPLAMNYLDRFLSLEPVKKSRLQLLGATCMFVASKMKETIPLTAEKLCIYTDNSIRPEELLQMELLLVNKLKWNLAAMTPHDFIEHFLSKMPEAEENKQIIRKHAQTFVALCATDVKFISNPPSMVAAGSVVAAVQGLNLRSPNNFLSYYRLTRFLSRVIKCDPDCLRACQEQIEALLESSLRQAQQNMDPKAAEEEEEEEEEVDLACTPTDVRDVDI

As for `CC(C)N1CCN(C(=O)c2ccc(Nc3ncc4cc5n(c4n3)C3(CCCCC3)CNC5=O)nc2)CC1` [II], the IC50 at CDK4/CyclinD1 was 2 nM; on CDK2/CyclinE it was 367 nM; on CDK2/CyclinA, 239 nM. For the same compound, on CDK2/CyclinE, the “Fold Selectivity (CDK2/CycE/CDK4)” value is given as 184. Moreover, the “Fold Selectivity (CDK2/CycA/CDK4)” value at CDK2/CyclinA is 120.
As for `CC1(C)CN(c2ccc(Nc3ncc4cc5n(c4n3)C3(CCCCC3)CNC5=O)nc2)CCN1` [I], the IC50 on CDK4/CyclinD1 was 2 nM. In addition, at CDK2/CyclinE, the “Fold Selectivity (CDK2/CycE/CDK4)” value worked out at 1065 and the IC50 was found to be 2120 nM. Further, on CDK2/CyclinA, the “Fold Selectivity (CDK2/CycA/CDK4)” value was 568 and the IC50 was found to be 1130 nM.
`CCC(C)CN1[C@H](C)CN(c2ccc(Nc3ncc4cc5n(c4n3)C3(CCCC3)CNC5=O)nc2)C[C@@H]1C` (some centres unmarked) [JJJ]: the IC50 at CDK4/CyclinD1 turned out to be 3.2 nM. On CDK2/CyclinE, the “Fold Selectivity (CDK2/CycE/CDK4)” value came out at 1620 and the IC50 stood at 5200 nM. Besides, at CDK2/CyclinA, the “Fold Selectivity (CDK2/CycA/CDK4)” value was determined as 882 and the IC50 amounted to 2830 nM.
`C[C@@H]1CN(c2ccc(Nc3ncc4cc5n(c4n3)C3(CCCCC3)CNC5=O)nc2)CCN1C[C@@H](C)O` [J]: the IC50 on CDK4/CyclinD1 was 0.7 nM. At CDK2/CyclinE, the “Fold Selectivity (CDK2/CycE/CDK4)” value turned out to be 7707 and the IC50 was determined as 5110 nM. For the same compound, at CDK2/CyclinA, the “Fold Selectivity (CDK2/CycA/CDK4)” value came out at 6546 and the IC50 turned out to be 4340 nM.
With `CC(C)(C)CCN1CCN(c2ccc(Nc3ncc4cc5n(c4n3)C3(CCCC3)CNC5=O)nc2)CC1` [KKK], the IC50 was 1.3 nM at CDK4/CyclinD1, 291 nM at CDK2/CyclinE and 87.3 nM on CDK2/CyclinA. In addition, the “Fold Selectivity (CDK2/CycE/CDK4)” value on CDK2/CyclinE was 231. The “Fold Selectivity (CDK2/CycA/CDK4)” value on CDK2/CyclinA is on record as 69.
Consider `C[C@H]1CN(c2ccc(Nc3ncc4cc5n(c4n3)C3(CCCCC3)CNC5=O)nc2)CCN1` [KK], for which the IC50 on CDK4/CyclinD1 was determined as 2.3 nM. Moreover, at CDK2/CyclinE, the “Fold Selectivity (CDK2/CycE/CDK4)” value was 762 and the IC50 was 1760 nM. Also, on CDK2/CyclinA, the “Fold Selectivity (CDK2/CycA/CDK4)” value is 396 and the IC50 was 915 nM.
Taken in the same sequence, the figures for `CC1CCN(C2CCN(c3ccc(Nc4ncc5cc6n(c5n4)C4(CCCCC4)CNC6=O)nc3)CC2)C1` (centres unmarked) [K] were 1 nM, 1019, 1070 nM, 703 and 738 nM.
For `CCN(CC)C1CCN(c2ccc(Nc3ncc4cc5n(c4n3)C3(CCCC3)CNC5=O)nc2)CC1` [LLL], in that order: 3.2 nM, 509, 1620 nM, 1425 and 4530 nM.
Turning to `O=C1NCC2(CCCCC2)n2c1cc1cnc(Nc3ccc(C(=O)N4CCN(C5CCC5)CC4)cn3)nc12` [LL], the IC50 on CDK4/CyclinD1 is 2 nM. At CDK2/CyclinE, the “Fold Selectivity (CDK2/CycE/CDK4)” value is listed as 103 and the IC50 is 202 nM. At CDK2/CyclinA, the “Fold Selectivity (CDK2/CycA/CDK4)” value is listed as 55 and the IC50 was determined as 108 nM.
Consider `CC(C)N1CCN(c2ccc(Nc3ncc4cc5n(c4n3)C3(CCCCC3)CNC5=O)nc2)C[C@H]1C` [L], for which the IC50 on CDK4/CyclinD1 came to 5.7 nM. Moreover, on CDK2/CyclinE, the “Fold Selectivity (CDK2/CycE/CDK4)” value is on record as 789 and the IC50 was 4530 nM. Besides, on CDK2/CyclinA, the “Fold Selectivity (CDK2/CycA/CDK4)” value is 260 and the IC50 amounted to 1490 nM.
As for `CCOCCN1CCN(c2ccc(Nc3ncc4cc5n(c4n3)C3(CCCC3)CNC5=O)nc2)CC1` [MMM], on CDK4/CyclinD1, the IC50 was 3.2 nM. Further, on CDK2/CyclinE, the “Fold Selectivity (CDK2/CycE/CDK4)” value was 600 and the IC50 came out at 1890 nM. Besides, on CDK2/CyclinA, the “Fold Selectivity (CDK2/CycA/CDK4)” value was 314 and the IC50 amounted to 990 nM.
For `C[C@@H]1CN(c2ccc(Nc3ncc4cc5n(c4n3)C3(CCCCC3)CNC5=O)nc2)C[C@H](C)N1C[C@@H](C)O` [MM], in that order: 1.8 nM, 1863, 3390 nM, 328 and 597 nM.
In the case of `C[C@H]1CN(c2ccc(Nc3ncc4cc5n(c4n3)C3(CCCCC3)CNC5=O)nc2)CCN1CCC(C)(C)C` [M], the IC50 on CDK4/CyclinD1 amounted to 2.3 nM. In addition, on CDK2/CyclinE, the “Fold Selectivity (CDK2/CycE/CDK4)” value is listed as 1004 and the IC50 worked out at 2280 nM. Also, at CDK2/CyclinA, the “Fold Selectivity (CDK2/CycA/CDK4)” value was determined as 621 and the IC50 was 1410 nM.
Consider `CC1CN(c2ccc(Nc3ncc4cc5n(c4n3)C3(CCCC3)CNC5=O)nc2)CCN1CC1CC1` (centres unmarked) [NNN], for which, on CDK4/CyclinD1, the IC50 came to 1.4 nM. Moreover, on CDK2/CyclinE, the “Fold Selectivity (CDK2/CycE/CDK4)” value came out at 2154 and the IC50 is 2930 nM. In addition, at CDK2/CyclinA, the “Fold Selectivity (CDK2/CycA/CDK4)” value worked out at 743 and the IC50 was determined as 1010 nM.
In the case of `C[C@@H]1CN(c2ccc(Nc3ncc4cc5n(c4n3)C3(CCCCC3)CNC5=O)nc2)CCN1C` [NN], the figures for the IC50 at CDK4/CyclinD1, at CDK2/CyclinE and at CDK2/CyclinA were 3.7 nM, 4700 nM and 1560 nM, respectively. Further, on CDK2/CyclinE, the “Fold Selectivity (CDK2/CycE/CDK4)” value is 1274. The “Fold Selectivity (CDK2/CycA/CDK4)” value at CDK2/CyclinA is on record as 423.
Regarding `O=C1NCC2(CCCC2)n2c1cc1cnc(Nc3ccc(C(=O)N4CCN(CC5CC5)CC4)cn3)nc12` [OOO], the IC50 on CDK4/CyclinD1 turned out to be 2.4 nM. In addition, on CDK2/CyclinE, the “Fold Selectivity (CDK2/CycE/CDK4)” value is 164 and the IC50 stood at 393 nM. Besides, on CDK2/CyclinA, the “Fold Selectivity (CDK2/CycA/CDK4)” value stood at 85 and the IC50 was 203 nM.
As to `CC1CN(c2ccc(Nc3ncc4cc5n(c4n3)C3(CCCCC3)CNC5=O)nc2)C[C@@H](C)N1CC1CC1` (some centres unmarked) [OO], at CDK4/CyclinD1, the IC50 came out at 9 nM. At CDK2/CyclinE, the “Fold Selectivity (CDK2/CycE/CDK4)” value came to 442 and the IC50 is 3980 nM. In addition, at CDK2/CyclinA, the “Fold Selectivity (CDK2/CycA/CDK4)” value is 63 and the IC50 came out at 570 nM.
Take `CC(C)N1CCN(c2ccc(Nc3ncc4cc5n(c4n3)C3(CCCCC3)CNC5=O)nc2)CC1C` (centres unmarked) [PP]: the IC50 at CDK4/CyclinD1 amounted to 3.1 nM. In addition, at CDK2/CyclinE, the “Fold Selectivity (CDK2/CycE/CDK4)” value turned out to be 1146 and the IC50 was 3600 nM. Also, on CDK2/CyclinA, the “Fold Selectivity (CDK2/CycA/CDK4)” value stood at 984 and the IC50 was determined as 3090 nM.
For `C[C@@H]1CN(c2ccc(Nc3ncc4cc5n(c4n3)C3(CCCCC3)CNC5=O)nc2)C[C@H](C)N1` [P], in that order: 3.3 nM, 1085, 3560 nM, 308 and 1010 nM.
As to `CCN(CC)C1CCN(c2ccc(Nc3ncc4cc5n(c4n3)C3(CCCCC3)CNC5=O)nc2)C1` (centres unmarked) [QQ], the IC50 was determined as 4.1 nM at CDK4/CyclinD1, 3060 nM on CDK2/CyclinE and 2570 nM on CDK2/CyclinA. Also, on CDK2/CyclinE, the “Fold Selectivity (CDK2/CycE/CDK4)” value was 746. Besides, the “Fold Selectivity (CDK2/CycA/CDK4)” value at CDK2/CyclinA stood at 627.
For the compound `CCN(CC)C1CCN(C2CCN(c3ccc(Nc4ncc5cc6n(c5n4)C4(CCCCC4)CNC6=O)nc3)CC2)C1` (centres unmarked) [RR], on CDK4/CyclinD1, the IC50 stood at 1.2 nM. Moreover, at CDK2/CyclinE, the “Fold Selectivity (CDK2/CycE/CDK4)” value came to 1374 and the IC50 came out at 1580 nM. Moreover, on CDK2/CyclinA, the “Fold Selectivity (CDK2/CycA/CDK4)” value came to 603 and the IC50 stood at 693 nM.
In the case of `C[C@H]1CN(c2ccc(Nc3ncc4cc5n(c4n3)C3(CCCCC3)CNC5=O)nc2)CCN1C` [R], the IC50 at CDK4/CyclinD1 came out at 0.5 nM. At CDK2/CyclinE, the “Fold Selectivity (CDK2/CycE/CDK4)” value stood at 3918 and the IC50 worked out at 1920 nM. Besides, on CDK2/CyclinA, the “Fold Selectivity (CDK2/CycA/CDK4)” value came to 2776 and the IC50 turned out to be 1360 nM.
Taken in the same sequence, the figures for `O=C1NCC2(CCCC2)n2c1cc1cnc(Nc3ccc(N4CCOCC4)nn3)nc12` [SSS] were 2 nM, 1112, 2280 nM, 917 and 1880 nM.
For `CN(C)C1CCN(c2ccc(Nc3ncc4cc5n(c4n3)C3(CCCCC3)CNC5=O)nn2)CC1` [SS], in that order: 0.8 nM, 1865, 1460 nM, 1775 and 1390 nM.
For the compound `C[C@@H](O)CN1CCN(c2ccc(Nc3ncc4cc5n(c4n3)C3(CCCCC3)CNC5=O)nc2)CC1` [S], on CDK4/CyclinD1, the IC50 is 1.7 nM. Also, at CDK2/CyclinE, the “Fold Selectivity (CDK2/CycE/CDK4)” value came to 718 and the IC50 was 1250 nM. Also, on CDK2/CyclinA, the “Fold Selectivity (CDK2/CycA/CDK4)” value came out at 197 and the IC50 was 342 nM.
In the case of `CC(C)N1CCN(c2ccc(Nc3ncc4cc5n(c4n3)C3(CCCCC3)CNC5=O)nn2)CC1` [TT], the IC50 turned out to be 0.8 nM at CDK4/CyclinD1, 1260 nM on CDK2/CyclinE and 596 nM at CDK2/CyclinA. The “Fold Selectivity (CDK2/CycE/CDK4)” value on CDK2/CyclinE was 1550. In addition, at CDK2/CyclinA, the “Fold Selectivity (CDK2/CycA/CDK4)” value came out at 733.
For the compound `C[C@@H](O)CN1CCN(c2ccc(Nc3ncc4cc5n(c4n3)C3(CCCC3)CNC5=O)nc2)C[C@@H]1C` [VV], the IC50 on CDK4/CyclinD1 was found to be 3.3 nM; at CDK2/CyclinE it was 2630 nM; at CDK2/CyclinA it was 789 nM. Besides, the “Fold Selectivity (CDK2/CycE/CDK4)” value on CDK2/CyclinE amounted to 809. Further, the “Fold Selectivity (CDK2/CycA/CDK4)” value on CDK2/CyclinA is on record as 243.
For `C[C@@H]1CN(c2ccc(Nc3ncc4cc5n(c4n3)C3(CCCCC3)CNC5=O)nc2)CCN1` [V], in that order: 2.9 nM, 3500 nM, 2130 nM, 1224 and 745.
